According to US11401279B2, “Pyrido[3,2-d]pyrimidine compounds as immunomodulators” (Incyte Corporation, priority 2019, dated 2022):
pEC50: −log10 of the molar value.

System: PD-L1 aAPC/CHO-K1 cells and Jurkat-PD-1-NFAT effector cells
Experiment: Nuclear factor of activated T-cells (NFAT) assay
Format: cell-based
Details: Cricetulus griseus, CHO-K1; luminescence, 24 hours
How it was run: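 PD-L1 aAPC/CHO-K1 cells (8000/well) co-cultured with Jurkat-PD-1-NFAT effector cells (10,000/well) plus compound in RPMI/1% FBS, 0.4% DMSO, top concentration 2 μM, 24 h at 37 °C. NFAT luciferase read by Bio-Glo luminescence. Fold induction normalized to DMSO; maximum induction relative to control compound; EC50 from curve fit.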

SMILES | pEC50
Cc1c(Nc2nc(C(F)F)nc3cc(CN4CC[C@@H](O)C4)cnc23)cccc1-c1cccc(NC(=O)c2nc3c(n2C)CCN(CCC24CCC(C(=O)O)(CC2)C4)C3)c1Cl [Example 1, (R)-4-(2-(2-((2-chloro-3′-((2-(difluoromethyl)-7-((3-hydroxypyrrolidin-1-yl)methyl)pyrido[3,2-d]pyrimidin-4-yl)amino)-2′-methyl-[1,1′-biphenyl]-3-yl)carbamoyl)-1-methyl-1,4,6,7-tetrahydro-5H-imidazo[4,5-c]pyridin-5-yl)ethyl)bicyclo[2.2.1]heptane-1-carboxylic Acid] | 8.70
Cc1c(Nc2nc(C(F)F)nc3cc(CN4CC[C@@](C)(O)C4)cnc23)cccc1-c1cccc(NC(=O)c2nc3c(n2C)CCN(CCC24CCC(C(=O)O)(CC2)C4)C3)c1Cl [Example 2, (R)-4-(2-(2-((2-chloro-3′-((2-(difluoromethyl)-7-((3-hydroxy-3-methylpyrrolidin-1-yl)methyl)pyrido[3,2-d]pyrimidin-4-yl)amino)-2′-methyl-[1,1′-biphenyl]-3-yl)carbamoyl)-1-methyl-1,4,6,7-tetrahydro-5H-imidazo[4,5-c]pyridin-5-yl)ethyl)bicyclo[2.2.1]heptane-1-carboxylic Acid] | 8.40
Cc1c(NC(=O)c2nc3c(n2C)CCN(CCC24CCC(C(=O)O)(CC2)C4)C3)cccc1-c1cccc(Nc2nc(C(F)F)nc3cc(CN4CC[C@@H](O)C4)cnc23)c1C [Example 5, (R)-4-(2-(2-((3′-((2-(difluoromethyl)-7-((3-hydroxypyrrolidin-1-yl)methyl)pyrido[3,2-d]pyrimidin-4-yl)amino)-2,2′-dimethyl-[1,1′-biphenyl]-3-yl)carbamoyl)-1-methyl-1,4,6,7-tetrahydro-5H-imidazo[4,5-c]pyridin-5-yl)ethyl)bicyclo[2.2.1]heptane-1-carboxylic Acid] | 8.04
